In PMC8397418, “Novel Bis-Thiazole Derivatives: Synthesis and Potential Cytotoxic Activity Through Apoptosis With Molecular Docking Approaches” (Frontiers in Chemistry, 2021):
Entries after “also recorded” stand apart in the source; their conditions may differ.

Assays:
Assay type in all cases: cell-based, human
KF-28 cells [1] = assay: DNA content and cell cycle analysis (PI, flow cytometry); conditions: 200 µM, 48 h; for Cell cycle phase G1 population: DMSO control 72%
Experimental: Studying the cell cycle phases by measuring DNA content is a crucial test that helps in evaluating the impact of a given drug(s) on dividing cells and may reflect the mechanism through which this drug(s) affects those cells. […] Compounds 5a, 5b, 5c, 5f, 5g, and 9 were added to similar numbers of cells at 200 µM for 48 h, and then, the different cell cycle phases were assessed by flow cytometric analysis.
The cells were seeded into six-well culture plates (3–5 × 10^5 cells/well) and incubated overnight at 37°C, under 5% CO2. The cells were then treated with indicated compounds for 48 h. Next, media supernatants and the cells were collected and washed with ice-cold PBS. Next, the cells were stained with PI (10 mg/ml) for 30 min and analyzed for DNA contents using flow cytometry analysis using an FL2 (λex/em 535/617 nm) signal detector (ACEA Novocyte™ flow cytometer, ACEA Biosciences, Inc., San Diego, CA, United States). For each sample, 12,000 events are acquired. Cell cycle distribution is calculated using a CytoFLex machine and analyzed by CytExpert software. Flow cytometric methodologies (annexin V/PI staining with cell cycle analyses) are carried out as previously described ([Nafie et al., 2020a]; [Nafie et al., 2020b]; [Gad et al., 2020]).

KF-28 cells [2] = assay: Quantitative RT-PCR of apoptosis-related genes; conditions: 48 h
Experimental: Next, we investigated the pathway through which apoptosis is induced by compounds 5a, 5b, and 5f in KF-28 cells. For that purpose, after treating cells with each compound, RNA was extracted, cDNA was synthesized, and RT-PCR was performed to quantify the mRNA expression of pro-apoptotic genes (p53, bax, puma), caspases 3, 8 9, anti-apoptotic gene (Bcl-2), and Pim-1 kinase genes in KF-28 cells.
The cells were grown in 10 cm^2 culture dishes to a monolayer with a confluence of 90% in triplicates. After different treatments, the cells were washed twice with PBS and then pelleted by centrifugation for 5 min at 1800 rpm at 4°C. The cells were lysed by Trizol reagent (Invitrogen), and then total RNA was purified with the phenol/chloroform extraction method. Concentration and purity of RNA samples were measured using NanoDrop. The RNA purity was assessed as OD260/OD230 (≥1.5) using NanoDrop. gDNA was eliminated by DNase. The RNA from three biological samples was then pooled for mRNA analysis, cDNA was synthesized using the iScript kit (Bio-Rad, United States) according to the manufacturer’s recommendation, and RT-PCRs consisted of 8.34 µL Fluocycle® II SYBR® (Euroclone, Milan, Italy), 0.5 µL of both 10 µM forward and reverse primers, 1 µL cDNA, and 6.34 µL of H2O. All reactions were performed for 35 cycles using the following temperature profile: 95°C for 5 min (initial denaturation), 95°C for […] (denaturation), 55°C for […] (annealing), and 72°C for […] (extension) ([Nafie et al., 2020a]; [Sarhan et al., 2020]). Then, the Ct values were collected, with the folds of changes between all the samples.

C-myc in KF-28 cells = assay: Western blot of C-myc expression; conditions: two days, vs DMSO
Excerpt: Pim-1 has been classified as a weak oncogene. However, a very strong synergism with regard to tumorigenicity occurs between Pim-1 and C-myc. This synergism is observed with bitransgenic mice overexpressing C-myc and Pim-1 in lymphoid tissue ([Möröy et al., 1991]). To further validate the simulation and docking data which introduced Pim-1 kinase as a potential target molecule for some of the tested compounds, we decided to check the effect of treatment with the selected compounds on the C-myc protein expression as a downstream target molecule known to be phosphorylated and stabilized by Pim-1 as a kinase ([Zhang et al., 2008]). […] Taking into consideration the fact that Pim-1 phosphorylates C-myc and controls its stability ([Zhang et al., 2008]) may conclude that the reduction of C-myc expression under the indicated compounds is due to the inhibition of Pim-1 activity (Figure 3). Therefore, the speculated inhibition of Pim-1 is supported by the above-mentioned qPCR data (Figure 3) and further supported by C-myc downregulation. Our results agree with the reported one which states that some thiazole derivatives are potent inhibitors against protein kinases including Pim-1 kinase ([Mohareb et al., 2019]).
Cell lysates were prepared by lysing cells in RIPA buffer (10 mM Tris (pH 7.4), 150 mM NaCl, 1% Triton X-100, 1% Na deoxycholate), supplemented with protease inhibitor cocktail (Sigma). Protein concentration of whole cell lysates was determined by the […] using the BSA kit (Pierce), and then equal protein amounts were heated to 95 °C for 5 min with sodium dodecyl sulfate (SDS) sample buffer (25 ml glycerol, 31.2 ml Tris buffer, 7.5 ml SDS, a dash of bromophenol blue/100 ml) and run on 15% SDS polyacrylamide gel electrophoresis (SDS-PAGE). Protein samples were then blotted onto PVDF membranes (Immobilon P, Watford, United Kingdom). The membranes were incubated in blocking solution (5% non-fat milk in PBS) for 1 h and then in primary antibody (anti-human C-myc pAb (Abcam; at dilution of 2:1,000) or GAPDH mAb (Santa Cruz; at dilution of 20:1,000)) overnight. After 3 × 10 min washes in TBS (0.1% Tween-20 in PBS), the membrane was incubated for 1 h at room temperature with horseradish-peroxidase–linked (HRP) secondary anti-rabbit or anti-mouse Ab (1:1,000 dilution in PBS). Signals on the membrane were developed using ECL reagent (Amersham, CA, United States) and then were imaged with the Chemidoc system (Bio-Rad, United States).

Compound	Cell cycle phase S population (KF-28 cells [1]) [%]	Cell cycle phase G1 population (KF-28 cells [1]) [%]	Bcl-2 expression, maximum decrease (KF-28 cells [2])	Pim-1 kinase expression, maximum decrease (KF-28 cells [2])	bax mRNA level, maximum increase (KF-28 cells [2]) [fold]	caspase 3 mRNA level, maximum increase (KF-28 cells [2])	caspase 9 mRNA level, maximum increase (KF-28 cells [2]) [fold]	p53 mRNA relative expression (KF-28 cells [2])	puma mRNA level, maximum increase (KF-28 cells [2])	C-myc protein expression (Western blot) (C-myc in KF-28 cells)	caspase 8 mRNA level, maximum increase (KF-28 cells [2]) [fold]
Cc1[nH]c(=NN=C2CCC(=NN=c3[nH]c(C)c(N=Nc4ccccc4)s3)CC2)sc1N=Nc1ccccc1 [5a, 1,4-Bis((5-phenylazo-4-methylthiazol-2-ylidene)hydrazono)cyclohexane]	11.4	75.9	≈ 0.5 fold	≈ 0.31 fold	~5.2	≈ 6.2 fold	~5.6	≈ 4.07 fold	≈ 5.08 fold	observable downregulation	
Cc1[nH]c(=NN=C2CCC(=NN=c3[nH]c(C)c(N=Nc4ccccc4Cl)s3)CC2)sc1N=Nc1ccccc1Cl [5f, 1,4-Bis((5-(2-chlorophenylazo)-4-methylthiazol-2-ylidene)hydrazono)cyclohexane]		76.9	≈ 0.76 fold	≈ 0.86 fold	~2.33	≈ 6.9 fold	~6.0	≈ 3.81 fold	≈ 3.14 fold	observable downregulation; also recorded: Appreciated downregulation	~5.5
Cc1ccc(N=Nc2sc(=NN=C3CCC(=NN=c4[nH]c(C)c(N=Nc5ccc(C)cc5)s4)CC3)[nH]c2C)cc1 [5b, 1,4-Bis((5-(4-tolylazo)-4-methylthiazol-2-ylidene)hydrazono)cyclohexane]	4.5	85.6			~3.33			≈ 3.41 fold	≈ 4.14 fold	observable downregulation; also recorded: Appreciated downregulation	
